Measured values: patent US6214563A, “Photon reducing agents for reducing undesired light emission in assays” (Aurora Biosciences Corporation, priority 1998, dated 2001)
One block for each molecule: values may come before it.

Experiments:
[1] = Effect of 50% methanol on coumarin fluorescence and phenol red absorbance (Example 2); assay type: physicochemical
Experimental: To further investigate the ability of a photon reducing agent to reduce fluorescence of a solution, fluorescence of a dye in the presence of a photon reducing agent was monitored in the presence and absence of methanol.
The fluorescence from a fluorophore in the presence of a photon reducing agent (phenol red) was determined in both aqueous buffer and aqueous buffer containing 50% (vol/vol) methanol. A 10 μM solution of 6-chloro-7-hydroxy coumarin-3-carboxylate was prepared in 39 mM phosphate buffer pH 7.5 and in a 1:1 mixture of same phosphate buffer and methanol. 1% (vol/vol) of a 100 mM aqueous Phenol Red stock solution was added to the solutions.

arthritis = conditions: in vivo; cited from earlier work
[2] = Coumarin fluorescence as a function of path length (Example 6); conditions: 10 μM coumarin + 1 mM phenol red; FIG. 10A
Experimental: To further investigate the ability of photon reducing agents to reduce fluorescence emitted from a solution, fluorescence emitted from a solution containing a fluorophore in the presence of a photon reducing agent was monitored as a function sample thickness.
A photon reducing agent, phenol red, was tested with a fluorophore, coumarin, as a function of sample thickness (path length). The experiment was conducted using a microscope equipped with epifluorescence. The liquid samples were drawn into low fluorescence capillary tubes of fixed path length (Vitro Dynamics, Rockaway N.J.) as indicated in the graphs. The following samples were evaluated:
The samples were excited using a 405/20 filter via a 425 dichroic reflector through a 20× objective (Zeiss 20× Fluar). Emitted light was filtered through a 460/50 filter and detected by an intensified CCD camera (Stanford Photonics, Menlo Park, Calif.). The detector output was converted to a 512×512 pixel eight-bit digital image. The data reflect the average intensity within a 20×20 pixel area within the capillary. The background intensity of the field was subtracted from all values.

[3] = Front face solution fluorescence of coumarin with and without phenol red (Example 1); conditions: 1 mM phenol red; 0.5 μM coumarin; 50% methanol/phosphate buffer pH 7.5
Experimental: To investigate the ability of a photon reducing agent to reduce fluorescence of a solution, emission of a fluorophore from a sample was monitored in the presence and absence of a photon reducing agent.
Fluorescence from a solution of a blue fluorescent dye, 6-chloro-7-hydroxy coumarin 3-carboxylate, was determined in the presence and absence of a 1 mM phenol red as the photon reducing agent. A solution of 0.5 μM 6-chloro-7-hydroxy coumarin-3-carboxylate in solvent containing 50% (vol/vol) aqueous 39 mM phosphate buffer pH 7.5 and 50% (vol/vol) methanol was prepared. After taking a front face fluorescence spectrum of this solution on a Spex Fluorolog 2, 1% (vol/vol) of a 100 mM aqueous Phenol Red stock solution was added and another spectrum taken. Front face fluorescence refers to exciting the sample at a right angle to the sample surface and collecting emitted light (for example, from the excited region or emission region) at 12.5 degrees from such angle of excitation.

[4] = Absorption maxima of dyes (Table 1); assay type: physicochemical; conditions: value printed in parentheses
[5] = Residual coumarin fluorescence with non-dye quenchers and particulates (Example 3); conditions: ex. 395 nm, em. 460 nm; pH 7.5
T-cells = conditions: cited from earlier work

- increase of fluorescence in 50% methanol buffer ([1]; absence of a photon reducing agent): about 30%
Molecule: O=C(O)c1cc2cc(Cl)c(O)cc2oc1=O [6-chloro-7-hydroxy coumarin-3-carboxylate]

Molecule: C[C@]12CCC(=O)C=C1CC[C@@H]1[C@@H]2[C@@H](O)C[C@@]2(C)[C@H]1CC[C@]2(O)C(=O)CO [Hydrocortisone]
- efficacy in rabbit knee arthritis model (arthritis): efficacious in this model

- decrease of absorbance at the emission wavelength of the coumarin in 50% methanol buffer ([1]; 50% methanol buffer): about 20%
- absorption maximum, value in parentheses [4]: 423 nm
Molecule: O=S1(=O)OC(c2ccc(O)cc2)(c2ccc(O)cc2)c2ccccc21 [phenol red]
- attenuation of coumarin fluorescence [2]: significantly attenuated
- reduction of front face fluorescence [3]: 70 fold

Molecule: NCCN(CCN)CCN [tris (2-aminoethyl) amine]
- concentration required (collisional quenchers) [5]: higher than 100 mM

Molecule: cyclosporin A
- prevention of T-cell proliferation in vitro (T-cells): prevent proliferation of T-cells in vitro
